Results: patent US20250195536A1, “BICYCLOOCTANE KRAS INHIBITORS” (Incyte Corporation, priority 2023, published 2025)

Assays:
[1] = biological target: KRAS G12D (Homo sapiens, UniProt P01116, G12D); assay: GDP-GTP exchange assay (KRAS G12D); format: biochemical; details: bodipy-GDP/GppNHp exchange with SOS1; 4 h pre-incubation, 2 h reaction;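 also: one dagger IC50 up to 100 nM and two daggers above 100 nM up to 1 μM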
Method in brief: (§1)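 Bodipy-GDP-loaded KRAS (2.5 nM final) was pre-incubated 4 h at r.t. with inhibitor in Hepes pH 7.5 buffer with MgCl2, then exchange started with GppNHp (500 μM) and SOS1 (150 nM) final. Fluorescence (ex 485/em 520 nm) read after 2 h for G12D, 3 h for G12V; IC50 from four-parameter logistic fit.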

[2] = biological target: KRAS G12V (Homo sapiens, UniProt P01116, G12V); assay: GDP-GTP exchange assay (KRAS G12V); format: biochemical; details: bodipy-GDP/GppNHp exchange with SOS1; 3 h incubation after GppNHp-SOS1;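 also: one dagger IC50 up to 100 nM and two daggers above 100 nM up to 1 μM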
Sequence of KRAS G12V (P01116 1-188 isoform P01116-2 G12V): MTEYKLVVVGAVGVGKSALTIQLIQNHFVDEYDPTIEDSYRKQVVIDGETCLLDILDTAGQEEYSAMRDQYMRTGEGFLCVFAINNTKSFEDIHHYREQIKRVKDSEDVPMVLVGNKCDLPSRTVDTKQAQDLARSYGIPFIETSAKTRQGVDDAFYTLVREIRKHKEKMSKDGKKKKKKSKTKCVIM
Method in brief: as §1

[3] = Caco2 assay (permeability, Papp A-B); format: in vitro ADME; details: human, Caco-2, absorptive direction (A-B), 50 μM test compound, 4% BSA in receiver
Method in brief: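 Caco-2 monolayers, 22-25 days on Transwells, TEER 300 Ω·cm^2, dosed apically with 50 μM compound in HBSS; basolateral HBSS with 4% BSA. 120 min at 37 °C, samples quantified by LCMS; Papp (A-B) from receiver-side cumulative flux slope, donor volume, surface area and initial donor amount.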

Sequence of KRAS G12D (P01116 1-188 isoform P01116-2 G12D): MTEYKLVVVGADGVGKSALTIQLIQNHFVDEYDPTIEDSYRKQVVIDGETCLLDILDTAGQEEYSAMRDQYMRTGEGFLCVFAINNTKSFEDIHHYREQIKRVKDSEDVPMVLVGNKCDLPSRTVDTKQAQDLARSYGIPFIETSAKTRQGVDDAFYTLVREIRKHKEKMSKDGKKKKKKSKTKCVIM

| Structure (SMILES) | G12D_exchange (KRAS_G12D exchange assay IC50) [1] | G12V_exchange (KRAS_G12V exchange assay IC50) [2] | Papp A→B at 120 min, 50 μM [3] [×10⁻⁶ cm/s] |
| --- | --- | --- | --- |
| Cc1nc2c(F)c(-c3cccc(Cl)c3Cl)c(CCC#N)cc2c2c1cc([C@H]1[C@H]3C[C@H](CN(c4ccnc(C(C)(C)O)c4)C3)N1C(=O)C1CC1)n2[C@H]1[C@H]2CN[C@@H]1C2 (atropisomer, axis not shown; (Ra)) [Example 62, 3-((Ra)-1-((1R,4R,5S)-2-azabicyclo[2.1.1]hexan-5-yl)-2-((1S,5R,7R)-6-(cyclopropanecarbonyl)-3-(2-(2-hydroxypropan-2-yl)pyridin-4-yl)-3,6-diazabicyclo[3.2.1]octan-7-yl)-7-(2,3-dichlorophenyl)-6-fluoro-4-methyl-1H-pyrrolo[3,2-c]quinolin-8-yl)propanenitrile] | † | † | ≤ 0.5 |
| Cc1nc2c(F)c(-c3cccc(Cl)c3Cl)c(CCC#N)cc2c2c1cc([C@H]1[C@H]3C[C@H](CN(c4cnn(C)c(=O)c4)C3)N1C(=O)C1CC1)n2[C@H]1[C@H]2CN[C@@H]1C2 (atropisomer, axis not shown; (Ra)) [Example 65, 3-((Ra)-1-((1R,4R,5S)-2-azabicyclo[2.1.1]hexan-5-yl)-2-((1S,5R,7R)-6-(cyclopropanecarbonyl)-3-(1-methyl-6-oxo-1,6-dihydropyridazin-4-yl)-3,6-diazabicyclo[3.2.1]octan-7-yl)-7-(2,3-dichlorophenyl)-6-fluoro-4-methyl-1H-pyrrolo[3,2-c]quinolin-8-yl)propanenitrile] | † | † | ≤ 0.5 |
| CCn1ccc(N2C[C@@H]3C[C@H](C2)N(C(=O)C2CC2)[C@H]3c2cc3c(C)nc4c(F)c(-c5cccc(Cl)c5Cl)c(CCC#N)cc4c3n2[C@H]2[C@H]3CN[C@@H]2C3)cc1=O (atropisomer, axis not shown; (Ra)) [Example 67, 3-((Ra)-1-((1R,4R,5S)-2-azabicyclo[2.1.1]hexan-5-yl)-2-((1S,5R,7R)-6-(cyclopropanecarbonyl)-3-(1-ethyl-2-oxo-1,2-dihydropyridin-4-yl)-3,6-diazabicyclo[3.2.1]octan-7-yl)-7-(2,3-dichlorophenyl)-6-fluoro-4-methyl-1H-pyrrolo[3,2-c]quinolin-8-yl)propanenitrile] | † | † | ≤ 0.5 |
| Cc1nc2c(F)c(-c3cccc(Cl)c3Cl)c(CCC#N)cc2c2c1cc([C@H]1[C@H]3C[C@H](CN(c4ccn(C(C)C)c(=O)c4)C3)N1C(=O)C1CC1)n2[C@H]1[C@H]2CN[C@@H]1C2 (atropisomer, axis not shown; (Ra)) [Example 68, 3-((Ra)-1-((1R,4R,5S)-2-azabicyclo[2.1.1]hexan-5-yl)-2-((1S,5R,7R)-6-(cyclopropanecarbonyl)-3-(1-isopropyl-2-oxo-1,2-dihydropyridin-4-yl)-3,6-diazabicyclo[3.2.1]octan-7-yl)-7-(2,3-dichlorophenyl)-6-fluoro-4-methyl-1H-pyrrolo[3,2-c]quinolin-8-yl)propanenitrile] | † | † | ≤ 0.5 |
| Cc1nc2c(F)c(-c3cccc(Cl)c3Cl)c(CCC#N)cc2c2c1cc([C@H]1[C@H]3C[C@H](CN(c4cc(=O)n(C)cn4)C3)N1C(=O)C1CC1)n2[C@H]1[C@H]2CN[C@@H]1C2 (atropisomer, axis not shown; (Ra)) [Example 69, 3-((Ra)-1-((1R,4R,5S)-2-azabicyclo[2.1.1]hexan-5-yl)-2-((1S,5R,7R)-6-(cyclopropanecarbonyl)-3-(1-methyl-6-oxo-1,6-dihydropyrimidin-4-yl)-3,6-diazabicyclo[3.2.1]octan-7-yl)-7-(2,3-dichlorophenyl)-6-fluoro-4-methyl-1H-pyrrolo[3,2-c]quinolin-8-yl)propanenitrile] | † | † | ≤ 0.5 |
| Cc1nc2c(F)c(-c3cccc(Cl)c3Cl)c(CCC#N)cc2c2c1cc([C@H]1[C@H]3C[C@H](CN(c4ccn5cc(C(F)(F)F)nc5c4)C3)N1C(=O)C1CC1)n2[C@H]1[C@H]2CN[C@@H]1C2 (atropisomer, axis not shown; (Ra)) [Example 70, 3-((Ra)-1-((1R,4R,5S)-2-azabicyclo[2.1.1]hexan-5-yl)-2-((1S,5R,7R)-6-(cyclopropanecarbonyl)-3-(2-(trifluoromethyl)imidazo[1,2-a]pyridin-7-yl)-3,6-diazabicyclo[3.2.1]octan-7-yl)-7-(2,3-dichlorophenyl)-6-fluoro-4-methyl-1H-pyrrolo[3,2-c]quinolin-8-yl)propanenitrile] | † | † | ≤ 0.5 |

Results, then the molecule that gave them:

| G12D_exchange (KRAS_G12D exchange assay IC50) [1] | G12V_exchange (KRAS_G12V exchange assay IC50) [2] | Papp A→B at 120 min, 50 μM [3] [×10⁻⁶ cm/s] | Structure (SMILES) |
| --- | --- | --- | --- |
| † | † | ≤ 0.5 | Cc1nc2c(F)c(-c3cccc(Cl)c3Cl)c(CCC#N)cc2c2c1cc([C@H]1[C@H]3C[C@H](CN(c4ccn5ccnc5c4)C3)N1C(=O)C1CC1)n2[C@H]1[C@H]2CN[C@@H]1C2 (atropisomer, axis not shown; (Ra)) [Example 61, 3-((Ra)-1-((1R,4R,5S)-2-azabicyclo[2.1.1]hexan-5-yl)-2-((1S,5R,7R)-6-(cyclopropanecarbonyl)-3-(imidazo[1,2-a]pyridin-7-yl)-3,6-diazabicyclo[3.2.1]octan-7-yl)-7-(2,3-dichlorophenyl)-6-fluoro-4-methyl-1H-pyrrolo[3,2-c]quinolin-8-yl)propanenitrile] |
| † | † | ≤ 0.5 | Cc1nc2c(F)c(-c3cccc(Cl)c3Cl)c(CCC#N)cc2c2c1cc([C@H]1[C@H]3C[C@H](CN(c4ccn5nccc5c4)C3)N1C(=O)C1CC1)n2[C@H]1[C@H]2CN[C@@H]1C2 (atropisomer, axis not shown; (Ra)) [Example 71, 3-((Ra)-1-((1R,4R,5S)-2-azabicyclo[2.1.1]hexan-5-yl)-2-((1S,5R,7R)-6-(cyclopropanecarbonyl)-3-(pyrazolo[1,5-a]pyridin-5-yl)-3,6-diazabicyclo[3.2.1]octan-7-yl)-7-(2,3-dichlorophenyl)-6-fluoro-4-methyl-1H-pyrrolo[3,2-c]quinolin-8-yl)propanenitrile] |
| † | † | ≤ 0.5 | Cc1nc2c(F)c(-c3cccc(Cl)c3Cl)c(CCC#N)cc2c2c1cc([C@H]1[C@H]3C[C@H](CN(c4ccn5ncnc5c4)C3)N1C(=O)C1CC1)n2[C@H]1[C@H]2CN[C@@H]1C2 (atropisomer, axis not shown; (Ra)) [Example 72, 3-((Ra)-2-((1S,5R,7R)-3-([1,2,4]triazolo[1,5-a]pyridin-7-yl)-6-(cyclopropanecarbonyl)-3,6-diazabicyclo[3.2.1]octan-7-yl)-1-((1R,4R,5S)-2-azabicyclo[2.1.1]hexan-5-yl)-7-(2,3-dichlorophenyl)-6-fluoro-4-methyl-1H-pyrrolo[3,2-c]quinolin-8-yl) propanenitrile] |
| † | † | ≤ 0.5 | Cc1nc2c(F)c(-c3cccc(Cl)c3Cl)c(CCC#N)cc2c2c1cc([C@H]1[C@H]3C[C@H](CN(c4ccoc(=O)c4)C3)N1C(=O)C1CC1)n2[C@H]1[C@H]2CN[C@@H]1C2 (atropisomer, axis not shown; (Ra)) [Example 73, 3-((Ra)-1-((1R,4R,5S)-2-azabicyclo[2.1.1]hexan-5-yl)-2-((1S,5R,7R)-6-(cyclopropanecarbonyl)-3-(2-oxo-2H-pyran-4-yl)-3,6-diazabicyclo[3.2.1]octan-7-yl)-7-(2,3-dichlorophenyl)-6-fluoro-4-methyl-1H-pyrrolo[3,2-c]quinolin-8-yl)propanenitrile] |
| † | † | ≤ 0.5 | Cc1nc2c(F)c(-c3cccc(Cl)c3Cl)c(CCC#N)cc2c2c1cc([C@H]1[C@H]3C[C@H](CN(c4ccnc(Br)c4)C3)N1C(=O)C1CC1)n2[C@H]1[C@H]2CN[C@@H]1C2 (atropisomer, axis not shown; (Ra)) [Example 74, 3-((Ra)-1-((1R,4R,5S)-2-azabicyclo[2.1.1]hexan-5-yl)-2-((1S,5R,7R)-3-(2-bromopyridin-4-yl)-6-(cyclopropanecarbonyl)-3,6-diazabicyclo[3.2.1]octan-7-yl)-7-(2,3-dichlorophenyl)-6-fluoro-4-methyl-1H-pyrrolo[3,2-c]quinolin-8-yl)propanenitrile] |
